Data reported in ChEMBL document CHEMBL1153943, “Exploring the pharmacokinetic properties of phosphorus-containing selective HDAC 1 and 2 inhibitors (SHI-1:2)” (Bioorg Med Chem Lett, 2009).
The source made the active and inactive calls. The calls are words filed in the database; no cut-off is given here.

Assays:
Histone deacetylase 3 = Histone deacetylase 3 (Homo sapiens, UniProt O15379); assay: Inhibition of HDAC3
Histone deacetylase 1 = Histone deacetylase 1 (Homo sapiens, UniProt Q13547); assay: Inhibition of HDAC1
Histone deacetylase 2 = Histone deacetylase 2 (Homo sapiens, UniProt Q92769); assay: Inhibition of HDAC2
Mus musculus [1] = assay: Effect on histone H2B acetylation in human HCT116 cells xenografted in CD1 mouse assessed as change in ratio of acetylated to deacetylated histone level at 150 mg/kg, po QD for 3 days measured after 8 hrs; type: functional, organism-based; set-up: dose 150 mg/kg; settings: HCT-116
Histone deacetylase 4 = Histone deacetylase 4 (Homo sapiens, UniProt P56524); assay: Inhibition of HDAC4
Histone deacetylase 5 = Histone deacetylase 5 (Homo sapiens, UniProt Q9UQL6); assay: Inhibition of HDAC5
[2] = target: T1, Protein deacetylase HDAC6 (Homo sapiens, UniProt Q9UBN7); assay: Inhibition of HDAC6
T1 sequence (Q9UBN7 whole entry): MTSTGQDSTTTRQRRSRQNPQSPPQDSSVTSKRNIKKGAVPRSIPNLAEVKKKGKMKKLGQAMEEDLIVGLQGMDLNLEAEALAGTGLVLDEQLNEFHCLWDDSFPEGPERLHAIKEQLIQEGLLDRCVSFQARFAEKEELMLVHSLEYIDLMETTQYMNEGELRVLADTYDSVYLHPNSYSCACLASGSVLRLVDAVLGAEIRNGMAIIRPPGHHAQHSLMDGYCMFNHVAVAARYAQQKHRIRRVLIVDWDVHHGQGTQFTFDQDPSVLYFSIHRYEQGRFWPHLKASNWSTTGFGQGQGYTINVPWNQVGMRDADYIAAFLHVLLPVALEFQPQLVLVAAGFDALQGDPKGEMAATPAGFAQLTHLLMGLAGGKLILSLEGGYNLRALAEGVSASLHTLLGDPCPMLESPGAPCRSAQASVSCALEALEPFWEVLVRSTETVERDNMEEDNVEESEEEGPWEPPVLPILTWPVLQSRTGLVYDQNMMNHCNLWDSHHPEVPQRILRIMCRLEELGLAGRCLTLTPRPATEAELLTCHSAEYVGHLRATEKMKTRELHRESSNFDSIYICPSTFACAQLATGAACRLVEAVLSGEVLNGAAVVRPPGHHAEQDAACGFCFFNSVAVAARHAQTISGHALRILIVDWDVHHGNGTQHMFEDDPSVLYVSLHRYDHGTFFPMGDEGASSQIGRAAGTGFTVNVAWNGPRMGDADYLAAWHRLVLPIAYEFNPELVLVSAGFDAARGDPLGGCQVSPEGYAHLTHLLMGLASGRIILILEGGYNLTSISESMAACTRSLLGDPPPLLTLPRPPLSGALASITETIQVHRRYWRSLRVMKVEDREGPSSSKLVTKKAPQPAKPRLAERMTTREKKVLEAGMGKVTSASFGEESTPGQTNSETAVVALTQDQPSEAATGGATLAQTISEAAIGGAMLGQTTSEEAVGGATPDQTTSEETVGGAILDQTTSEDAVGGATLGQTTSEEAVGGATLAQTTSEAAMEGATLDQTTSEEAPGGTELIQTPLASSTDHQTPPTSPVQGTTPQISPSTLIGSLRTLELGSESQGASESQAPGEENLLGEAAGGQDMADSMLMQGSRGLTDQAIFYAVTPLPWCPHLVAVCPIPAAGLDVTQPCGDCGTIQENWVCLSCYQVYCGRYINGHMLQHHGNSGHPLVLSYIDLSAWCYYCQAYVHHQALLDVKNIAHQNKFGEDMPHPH

Histone deacetylase 7 = target: T2, Histone deacetylase 7 (Homo sapiens, UniProt Q8WUI4); assay: Inhibition of HDAC7
T2 sequence (Q8WUI4 whole entry): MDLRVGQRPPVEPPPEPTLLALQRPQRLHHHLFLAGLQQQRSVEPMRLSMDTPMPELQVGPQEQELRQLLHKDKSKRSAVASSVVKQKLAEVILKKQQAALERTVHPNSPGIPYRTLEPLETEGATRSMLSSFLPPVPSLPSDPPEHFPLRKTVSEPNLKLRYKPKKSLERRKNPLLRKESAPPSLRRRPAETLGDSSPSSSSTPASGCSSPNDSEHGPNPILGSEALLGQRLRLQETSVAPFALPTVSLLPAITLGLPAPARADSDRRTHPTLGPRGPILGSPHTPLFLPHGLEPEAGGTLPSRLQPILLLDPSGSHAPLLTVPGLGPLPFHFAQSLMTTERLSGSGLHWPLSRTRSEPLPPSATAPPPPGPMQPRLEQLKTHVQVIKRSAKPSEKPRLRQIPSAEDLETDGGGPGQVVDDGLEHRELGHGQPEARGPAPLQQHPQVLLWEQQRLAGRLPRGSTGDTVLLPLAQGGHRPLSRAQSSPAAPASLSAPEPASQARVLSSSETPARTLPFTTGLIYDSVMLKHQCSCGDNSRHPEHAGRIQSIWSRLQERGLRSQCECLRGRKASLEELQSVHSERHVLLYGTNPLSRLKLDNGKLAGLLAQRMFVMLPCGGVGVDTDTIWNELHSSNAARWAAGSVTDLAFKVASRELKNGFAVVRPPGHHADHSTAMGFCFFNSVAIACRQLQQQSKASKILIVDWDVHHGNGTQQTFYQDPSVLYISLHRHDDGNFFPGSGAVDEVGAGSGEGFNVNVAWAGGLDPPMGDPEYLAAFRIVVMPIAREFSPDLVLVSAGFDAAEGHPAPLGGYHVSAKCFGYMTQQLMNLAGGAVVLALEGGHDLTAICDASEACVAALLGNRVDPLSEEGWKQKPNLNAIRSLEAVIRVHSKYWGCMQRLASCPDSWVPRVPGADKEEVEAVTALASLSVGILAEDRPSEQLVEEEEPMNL

Histone deacetylase 8 = target: T3, Histone deacetylase 8 (Homo sapiens, UniProt Q9BY41); assay: Inhibition of HDAC8
T3 sequence (Q9BY41 whole entry): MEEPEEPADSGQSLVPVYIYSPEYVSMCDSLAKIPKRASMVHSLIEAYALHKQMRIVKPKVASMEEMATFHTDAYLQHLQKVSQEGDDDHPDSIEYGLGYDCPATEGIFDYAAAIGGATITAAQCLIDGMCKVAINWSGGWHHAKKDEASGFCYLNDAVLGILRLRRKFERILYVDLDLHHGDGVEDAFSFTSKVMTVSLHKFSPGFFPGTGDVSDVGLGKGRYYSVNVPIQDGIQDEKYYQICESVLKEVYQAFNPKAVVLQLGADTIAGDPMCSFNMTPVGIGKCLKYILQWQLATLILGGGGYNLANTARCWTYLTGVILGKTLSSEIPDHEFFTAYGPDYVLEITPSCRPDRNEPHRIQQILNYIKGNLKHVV

Histone deacetylase 11 = target: T4, Histone deacetylase 11 (Homo sapiens, UniProt Q96DB2); assay: Inhibition of HDAC11
T4 sequence (Q96DB2 whole entry): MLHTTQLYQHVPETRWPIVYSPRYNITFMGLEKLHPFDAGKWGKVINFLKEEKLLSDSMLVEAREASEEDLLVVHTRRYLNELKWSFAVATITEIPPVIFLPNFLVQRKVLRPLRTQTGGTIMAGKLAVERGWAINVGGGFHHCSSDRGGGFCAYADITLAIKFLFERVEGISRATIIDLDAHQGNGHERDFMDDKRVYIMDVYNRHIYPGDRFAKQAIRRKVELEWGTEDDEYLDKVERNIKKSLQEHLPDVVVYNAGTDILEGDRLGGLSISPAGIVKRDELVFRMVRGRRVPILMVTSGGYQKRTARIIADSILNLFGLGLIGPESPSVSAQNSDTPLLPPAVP

HCT-116 [3] = assay: Antiproliferative activity against human HCT116 cells after 72 hrs; type: functional; settings: HCT-116, 72 h
HCT-116 [4] = assay: Antitumor activity against human HCT116 cells xenografted in po dosed mouse assessed as reduction in tumor growth dosed daily for 21 days; type: functional, organism-based
Mus musculus [5] = assay: Toxicity in human HCT116 cells xenografted CD1 mouse at 150 to 300 mg/kg, po after 21 days; type: organism-based, HCT-116; set-up: dose 150-300 mg/kg, route oral; settings: in vivo, 504 h
[6] = Cmax in mouse at 150 mg/kg, po; type: ADME, organism-based; set-up: dose 150 mg/kg, route oral; settings: in vivo
[7] = AUC in mouse at 150 mg/kg, po; type: ADME, organism-based, Plasma; set-up: dose 150 mg/kg, route oral; settings: whole blood
[8] = Volume of distribution at steady state in Beagle dog; type: ADME, organism-based, Canis lupus familiaris; settings: in vivo, read-out: Vdss
[9] = Half life in Beagle dog; type: ADME, organism-based, Canis lupus familiaris; settings: in vivo
[10] = Clearance in Sprague-Dawley rat plasma; type: ADME, organism-based
[11] = Oral bioavailability in Sprague-Dawley rat; type: ADME, organism-based; settings: in vivo
[12] = AUC (0 to infinity) in po dosed Sprague-Dawley rat; type: ADME, organism-based; set-up: time infinity, route oral; settings: plasma
[13] = Volume of distribution at steady state in Sprague-Dawley rat; type: ADME, organism-based; settings: in vivo, read-out: Vdss
[14] = Half life in Sprague-Dawley rat; type: ADME, organism-based; settings: in vivo
[15] = AUC (0 to infinity) in Swiss-Webster mouse; type: ADME, organism-based; set-up: time infinity; settings: plasma
[16] = Volume of distribution at steady state in Swiss-Webster mouse; type: ADME, organism-based; settings: in vivo, read-out: Vdss
[17] = Half life in Swiss-Webster mouse; type: ADME, organism-based; settings: in vivo
[18] = AUC (0 to infinity) in Beagle dog; type: ADME, organism-based, Canis lupus familiaris; set-up: time infinity; settings: plasma
[19] = Plasma concentration in ip dosed nude CD-1 mouse after 3 hrs
Mus musculus [20] = assay: Effect on histone H2B acetylation in human HCT116 cells xenografted in CD1 mouse assessed as change in ratio of acetylated to deacetylated histone level at 150 mg/kg, po QD for 3 days measured after 24 hrs; type: functional, organism-based; set-up: dose 150 mg/kg; settings: HCT-116
Mus musculus [21] = assay: Toxicity in human HCT116 cells xenografted CD1 mouse assessed as body weight loss at 100 mg/kg, po after 21 days; type: organism-based, HCT-116; set-up: dose 100 mg/kg, route oral; settings: in vivo, 504 h

Sequence of Histone deacetylase 1 (Q13547 whole entry): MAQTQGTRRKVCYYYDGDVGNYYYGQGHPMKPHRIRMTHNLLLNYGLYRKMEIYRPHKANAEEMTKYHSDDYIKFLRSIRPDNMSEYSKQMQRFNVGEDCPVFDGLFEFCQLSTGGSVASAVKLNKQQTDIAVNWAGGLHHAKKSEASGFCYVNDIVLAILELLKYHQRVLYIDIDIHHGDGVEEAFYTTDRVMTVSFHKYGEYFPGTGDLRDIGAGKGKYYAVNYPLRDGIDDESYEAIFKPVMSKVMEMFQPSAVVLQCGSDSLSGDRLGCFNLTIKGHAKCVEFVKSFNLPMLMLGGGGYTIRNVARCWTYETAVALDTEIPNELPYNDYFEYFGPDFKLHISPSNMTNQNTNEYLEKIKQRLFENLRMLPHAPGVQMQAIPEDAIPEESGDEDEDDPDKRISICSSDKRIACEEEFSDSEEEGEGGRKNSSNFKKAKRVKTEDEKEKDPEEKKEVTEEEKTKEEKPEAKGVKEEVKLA
Sequence of Histone deacetylase 3 (O15379 whole entry): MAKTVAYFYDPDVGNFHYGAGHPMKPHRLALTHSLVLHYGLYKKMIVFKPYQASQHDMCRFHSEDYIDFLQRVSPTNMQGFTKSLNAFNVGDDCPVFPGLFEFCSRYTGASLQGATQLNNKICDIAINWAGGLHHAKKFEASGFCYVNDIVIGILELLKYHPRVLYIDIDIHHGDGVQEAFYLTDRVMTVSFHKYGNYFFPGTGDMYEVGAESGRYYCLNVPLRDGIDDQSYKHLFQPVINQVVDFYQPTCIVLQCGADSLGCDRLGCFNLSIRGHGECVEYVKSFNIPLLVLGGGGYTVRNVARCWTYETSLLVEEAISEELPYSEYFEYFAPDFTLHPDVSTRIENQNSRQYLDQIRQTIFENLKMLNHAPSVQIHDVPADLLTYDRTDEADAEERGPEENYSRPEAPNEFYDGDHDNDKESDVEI
Sequence of Histone deacetylase 2 (Q92769 whole entry): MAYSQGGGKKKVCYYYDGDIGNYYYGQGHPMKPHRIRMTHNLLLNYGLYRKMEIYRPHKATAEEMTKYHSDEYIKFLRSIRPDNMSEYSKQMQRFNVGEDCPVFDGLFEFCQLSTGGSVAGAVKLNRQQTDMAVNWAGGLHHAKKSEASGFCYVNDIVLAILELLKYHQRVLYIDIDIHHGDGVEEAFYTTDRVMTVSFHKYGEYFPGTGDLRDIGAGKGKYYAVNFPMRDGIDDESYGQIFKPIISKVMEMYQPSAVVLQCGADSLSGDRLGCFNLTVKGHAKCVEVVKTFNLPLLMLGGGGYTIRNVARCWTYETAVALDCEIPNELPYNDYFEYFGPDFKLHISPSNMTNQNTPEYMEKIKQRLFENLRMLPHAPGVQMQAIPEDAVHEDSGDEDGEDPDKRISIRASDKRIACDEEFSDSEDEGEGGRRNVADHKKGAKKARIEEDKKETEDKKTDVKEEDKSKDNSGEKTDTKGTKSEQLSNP
Sequence of Histone deacetylase 5 (Q9UQL6 whole entry): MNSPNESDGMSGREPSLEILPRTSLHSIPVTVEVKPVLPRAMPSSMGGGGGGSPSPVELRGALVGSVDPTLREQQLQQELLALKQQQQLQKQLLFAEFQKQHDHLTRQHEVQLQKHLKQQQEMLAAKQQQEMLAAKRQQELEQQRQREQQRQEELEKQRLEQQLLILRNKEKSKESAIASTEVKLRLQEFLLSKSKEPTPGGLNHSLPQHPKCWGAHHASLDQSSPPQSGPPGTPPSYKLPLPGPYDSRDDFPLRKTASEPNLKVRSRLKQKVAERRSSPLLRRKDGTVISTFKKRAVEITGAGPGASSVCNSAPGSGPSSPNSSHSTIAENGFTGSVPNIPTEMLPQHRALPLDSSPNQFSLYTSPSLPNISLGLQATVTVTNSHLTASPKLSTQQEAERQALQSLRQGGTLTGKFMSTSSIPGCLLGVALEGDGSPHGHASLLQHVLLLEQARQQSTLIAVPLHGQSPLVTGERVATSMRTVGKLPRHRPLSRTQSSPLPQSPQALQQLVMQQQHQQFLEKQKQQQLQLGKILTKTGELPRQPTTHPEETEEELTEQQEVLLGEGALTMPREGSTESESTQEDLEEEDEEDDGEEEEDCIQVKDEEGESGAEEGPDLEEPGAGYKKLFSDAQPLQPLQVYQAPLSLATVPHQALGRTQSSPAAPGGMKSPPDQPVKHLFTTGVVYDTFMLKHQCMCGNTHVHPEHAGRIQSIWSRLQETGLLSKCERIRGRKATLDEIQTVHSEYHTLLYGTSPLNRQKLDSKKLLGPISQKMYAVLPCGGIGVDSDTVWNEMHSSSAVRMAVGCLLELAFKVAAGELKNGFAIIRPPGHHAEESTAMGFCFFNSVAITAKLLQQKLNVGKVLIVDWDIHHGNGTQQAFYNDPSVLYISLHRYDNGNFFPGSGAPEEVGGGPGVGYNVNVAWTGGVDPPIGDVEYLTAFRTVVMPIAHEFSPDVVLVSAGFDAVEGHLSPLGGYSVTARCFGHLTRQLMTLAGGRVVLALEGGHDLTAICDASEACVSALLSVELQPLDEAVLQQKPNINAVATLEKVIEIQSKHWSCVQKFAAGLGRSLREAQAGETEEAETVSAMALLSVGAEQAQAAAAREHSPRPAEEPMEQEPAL
Sequence of Histone deacetylase 4 (P56524 whole entry): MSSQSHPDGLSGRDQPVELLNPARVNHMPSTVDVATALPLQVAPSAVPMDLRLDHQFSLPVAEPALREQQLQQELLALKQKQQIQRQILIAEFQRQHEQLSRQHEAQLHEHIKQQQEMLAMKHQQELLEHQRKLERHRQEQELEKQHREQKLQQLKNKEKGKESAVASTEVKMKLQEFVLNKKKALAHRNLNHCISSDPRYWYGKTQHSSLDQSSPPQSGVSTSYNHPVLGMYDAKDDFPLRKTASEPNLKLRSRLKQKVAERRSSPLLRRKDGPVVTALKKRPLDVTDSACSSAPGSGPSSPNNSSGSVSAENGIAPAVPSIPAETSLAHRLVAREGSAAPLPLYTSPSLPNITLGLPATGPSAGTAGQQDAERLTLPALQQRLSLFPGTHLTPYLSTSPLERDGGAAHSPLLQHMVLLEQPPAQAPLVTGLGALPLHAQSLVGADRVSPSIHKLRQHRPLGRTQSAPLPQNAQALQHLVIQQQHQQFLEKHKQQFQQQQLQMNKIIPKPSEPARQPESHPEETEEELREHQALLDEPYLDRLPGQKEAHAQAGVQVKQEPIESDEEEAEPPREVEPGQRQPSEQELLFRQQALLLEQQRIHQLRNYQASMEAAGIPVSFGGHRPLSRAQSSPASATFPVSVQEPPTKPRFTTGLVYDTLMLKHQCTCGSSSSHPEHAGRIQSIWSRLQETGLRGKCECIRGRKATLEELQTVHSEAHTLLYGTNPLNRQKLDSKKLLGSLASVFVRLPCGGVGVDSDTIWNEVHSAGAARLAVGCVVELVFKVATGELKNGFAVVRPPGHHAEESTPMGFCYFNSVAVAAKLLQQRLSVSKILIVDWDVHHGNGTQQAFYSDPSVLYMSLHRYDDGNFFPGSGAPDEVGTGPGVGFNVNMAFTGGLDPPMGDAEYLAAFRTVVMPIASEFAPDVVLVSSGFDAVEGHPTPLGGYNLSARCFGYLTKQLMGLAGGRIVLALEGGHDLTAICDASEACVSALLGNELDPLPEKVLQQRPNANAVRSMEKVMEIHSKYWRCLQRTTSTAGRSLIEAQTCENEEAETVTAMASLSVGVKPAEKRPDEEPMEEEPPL

SMILES	IC50 (Histone deacetylase 1) [nM]	GI50 (HCT-116 [3]) [nM]	Cmax [6] [µM]	AUC [7] [µM·h]	other results
CCOP(=O)(CNCc1ccc(C(=O)Nc2cc(-c3cccs3)ccc2N)cc1)OCC	7.7	300			IC50 (Histone deacetylase 3): 12000 nM; IC50 (Histone deacetylase 2): 14 nM; Activity (Mus musculus [1]): Active; IC50 (Histone deacetylase 4): > 50000 nM; IC50 (Histone deacetylase 5): > 50000 nM; IC50 [2]: > 50000 nM; IC50 (Histone deacetylase 7): > 50000 nM; IC50 (Histone deacetylase 8): 37000 nM; IC50 (Histone deacetylase 11): > 50000 nM; Activity (HCT-116 [4]): Dose-dependent effect; Activity (Mus musculus [5]): Non-toxic
COP(=O)(Cc1ccc(C(=O)Nc2cc(-c3cccs3)ccc2N)cc1)c1ccccc1 (stereo unspecified)	20	360			
CC(C)P(=O)(Cc1ccc(C(=O)Nc2cc(-c3cccs3)ccc2N)cc1)C(C)C	11	270	1.9	1.3	
CCP(=O)(Cc1cccc(C(=O)Nc2cc(-c3cccs3)ccc2N)c1)OC (stereo unspecified)	90	6000			
CCOP(=O)(Cc1ccc(C(=O)Nc2cc(-c3cccs3)ccc2N)cc1)OCC	13	250			Vd [8]: 2.85 L/kg; half-life [9]: 0.43 h; clearance [10]: 15.8 mL/min/kg; bioavailability [11]: 45%; AUC(0-inf) [12]: 4.4 µM·h; Vd [13]: 7.27 L/kg; half-life [14]: 5.5 h; AUC(0-inf) [15]: 0.17 µM·h; Vd [16]: 20.1 L/kg; half-life [17]: 55 h; AUC(0-inf) [18]: 0.25 µM·h; concentration at 3 h [19]: 1.54 µM
CCOP(C)(=O)c1ccc(C(=O)Nc2cc(-c3cccs3)ccc2N)cc1 (stereo unspecified)	14	460	43	44	
CCP(=O)(CC)Cc1cccc(C(=O)Nc2cc(-c3cccs3)ccc2N)c1	270	> 20000			
CCOP(=O)(c1ccccc1)c1ccc(C(=O)Nc2cc(-c3cccs3)ccc2N)cc1 (stereo unspecified)	21	170	0.56	0.91	
CCOP(=O)(OCC)c1ccc(C(=O)Nc2cc(-c3cccs3)ccc2N)cc1	22	410			
Nc1ccc(-c2cccs2)cc1NC(=O)c1ccc(CP(=O)(O)c2ccccc2)cc1	28	> 20000			
CCOP(=O)(CC)Cc1ccc(C(=O)Nc2cc(-c3cccs3)ccc2N)cc1 (stereo unspecified)	6.5	240	17	17	
CP(=O)(Cc1ccc(C(=O)Nc2cc(-c3cccs3)ccc2N)cc1)OCc1cccnc1 (stereo unspecified)	3.5	130	8.8	16	
CCP(=O)(Cc1ccc(C(=O)Nc2cc(-c3cccs3)ccc2N)cc1)OC (stereo unspecified)	7	130			
COP(=O)(Cc1cccc(C(=O)Nc2cc(-c3cccs3)ccc2N)c1)c1ccccc1 (stereo unspecified)	140	8600			
CCP(=O)(CC)Cc1ccc(C(=O)Nc2cc(-c3cccs3)ccc2N)cc1	9	200	14	17	
COP(=O)(c1ccccc1)c1ccc(C(=O)Nc2cc(-c3cccs3)ccc2N)cc1 (stereo unspecified)	29	380	11	12	
CCOP(=O)(Cc1cccc(C(=O)Nc2cc(-c3cccs3)ccc2N)c1)OCC	23	2500			
CCOP(=O)(O)c1ccc(C(=O)Nc2cc(-c3cccs3)ccc2N)cc1	42	> 20000			
CCOP(C)(=O)Cc1ccc(C(=O)Nc2cc(-c3cccs3)ccc2N)cc1 (stereo unspecified)	16	330	31	50	Activity (Mus musculus [20]): inactive
CCOP(=O)(O)Cc1ccc(C(=O)Nc2cc(-c3cccs3)ccc2N)cc1	38	> 20000			
COP(C)(=O)Cc1ccc(C(=O)Nc2cc(-c3cccs3)ccc2N)cc1 (stereo unspecified)	54	160	88	115	Activity (Mus musculus [20]): Active; Activity (HCT-116 [4]): Dose-dependent effect; Activity (Mus musculus [21]): 22%
COP(C)(=O)c1ccc(C(=O)Nc2cc(-c3cccs3)ccc2N)cc1 (stereo unspecified)	52	420	39	60	
